Results from ChEMBL document CHEMBL5729371, “Compound functioning as bromodomain protein inhibitor, and composition” (2022).
pIC50: −log10 of the molar value.

Key:
[1] = target: T1, Bromodomain-containing protein 4 (Homo sapiens, UniProt O60885); assay: (§1) Inhibitory Activity Assay: The assays of BRD4 (D1) and BRD4 (D2) were conducted in a 384-well polystyrene plate. The test compounds were first serially diluted in DMSO and the test compound/DMSO were transferred to 384-well plates. The final concentration of DMSO in the assay was 0.1%. 2 volumes of protein/peptide mixture were added into 384-well plates, then 2 volumes of assay mixture were added, and shake for 30 s. The plate was incubated at room temperature for 2 h. Then the HTRF signal on EnVision was readed.
[2] = target: T1, Bromodomain-containing protein 4; assay: as §1; remark: listed apart in the source

pIC50 [1] | pIC50 [2] | SMILES
8.38 | 8.85 | Cc1nc2ncc(-c3cn(C)c(=O)c4[nH]ccc34)cc2n1Cc1cccc(Cl)c1
8.16 | 8.77 | Cc1nc2ncc(-c3cn(C)c(=O)c4[nH]ccc34)nc2n1Cc1ccc(Cl)cc1
9.00 | 9.40 | CCS(=O)(=O)Nc1cc(-c2cn(C)c(=O)c3[nH]ccc23)cc2c1nc(C)n2Cc1ccc(Cl)cc1
